Experimental findings from patent US20140343001A1, “INDOLE DERIVATIVES INHIBITORS OF ENZYME LACTATE DEHYDROGENASE (LDH)” (Universitá di Pisa, priority 2011, published 2014) are described below.

Structures are written as SMILES.

One test addresses T1, hLDH5 (LDH-A) (Homo sapiens, UniProt P00338).
T1 construct: purchased LEEBIO (USA)
In words: Enzyme inhibition of human lactate dehydrogenase isoform 5. Type of test: biochemical. The note with it: ranges of values; 37° C., pH 7.4; read-out: inhibitory activity against hLDH5 (Ki). The method, then: The compounds described in the examples were evaluated in enzymatic assays to assess its inhibitory properties against two human isoforms of lactate dehydrogenase, hLDH5 containing solely the subunit LDH-A (LEEBIO—USA), and the hLDH1 containing only the LDH subunits-B (Sigma Aldrich, USA), in order to verify the selectivity of these compounds.
(for Ki measurements). Such assays were conducted in cells containing 200 μL of a solution comprising the reagents dissolved in phosphate buffer (KH2PO4 and K2HPO4) at pH 7.4.
IC50 values were calculated as described below. […] Seven different concentrations (in duplicate for each concentration) of compound were used to generate a concentration-response curve. […] Compound solutions were dispensed in 96-well plates (8 μL), then substrate and cofactor dissolved in buffer (152 μl) and enzyme solution (40 μl) were finally added. Dilution of the enzyme stock solution was made to allow a 10% consumption of the cofactor after 15 min. The eventual background fluorescence of the tested compounds or quenching of the NADH fluorescence by the tested compounds was subtracted. In addition to the compound test wells, each plate contained maximum and minimum controls. Assay plates were incubated at room temperature for 15 min and the final measurements were performed using Victor X3 Microplates reader (PerkinElmer®) at a fluorescence emission wavelength of 460 nm (excitation at 340 nm). IC50 were generated using the curve-fitting tool of GraphPad Prism].
The resulting data of enzymatic kinetic (the constants of Michaelis-Menten) were determined by analysis of non-linear regression.
As usually defined, the Ki is a dissociation constant, usually derived from enzyme kinetics or from competition with a known ligand. As to `O=C(O)c1cc2c(C(F)(F)F)cc(-c3ccc(Cl)c(Cl)c3)cc2n1O` [Example 27, 6-(3,4-dichlorophenyl)-1-hydroxy-4-(trifluoromethyl)-1H-indole-2-carboxylic acid], the Ki lay in the range of 1000 to 10000 nM.
As for `O=C(O)c1cc2c(C(F)(F)F)cc(-c3cccc(Cl)c3Cl)cc2n1O` [Example 37, 6-(2,3-dichlorophenyl)-1-hydroxy-4-(trifluoromethyl)-1H-indole-2-carboxylic acid], the inhibitory constant (Ki) lay within 1000 to 10000 nM.
On to `O=C(O)c1cc2c(C(F)(F)F)cc(-c3cc(Cl)ccc3Cl)cc2n1O` [Example 39, 6-(2,5-dichlorophenyl)-1-hydroxy-4-(trifluoromethyl)-1H-indole-2-carboxylic acid], for which the Ki lay in the range of 5000 to 25000 nM.
With `COC(=O)c1cc2c(F)cc(-c3ccccc3)cc2n1O` [Example 51, methyl 4-fluoro-1-hydroxy-6-phenyl-1H-indole-2-carboxylate], the Ki is 10000 to 100000 nM.
For `O=C(O)c1cc2c(F)cc(-c3ccccc3)cc2n1O` [Example 52, 4-fluoro-1-hydroxy-6-phenyl-1H-indole-2-carboxylic acid], the Ki is 5000 to 25000 nM.
Regarding `O=C(O)c1cc2c(F)cc(-c3ccc(Cl)cc3Cl)cc2n1O` [Example 54, 6-(2,4-dichlorophenyl)-4-fluoro-1-hydroxy-1H-indole-2-carboxylic acid], the Ki was 5000 to 25000 nM.

The test is the same for the next values; noted with them: ranges of values; room temperature, pH 7.4; read-out: inhibitory activity against hLDH5 (IC50).
Broadly, the IC50 is the midpoint of a concentration-inhibition curve. Consider `Cc1c(C(=O)O)n(O)c2cc(-c3ccc(Cl)cc3Cl)cc(C(F)(F)F)c12` [Example 26, 6-(2,4-dichlorophenyl)-1-hydroxy-3-methyl-4-(trifluoromethyl)-1H-indole-2-carboxylic acid], for which the IC50 was in the range of 1000 to 10000 nM.
As to `CCCCOC(=O)c1cc2c(C(F)(F)F)cc(-c3ccccc3)cc2n1O[C@@H]1O[C@H](COC(C)=O)[C@@H](OC(C)=O)[C@H](OC(C)=O)[C@H]1OC(C)=O` [Example 28, butyl 6-phenyl-1-(β-D-2,3,4,6-tetra-O-acetylglucopyranosyl)oxy-4-(trifluoromethyl)-1H-indole-2-carboxylate], the IC50 is greater than 100000 nM.
On to `CC(=O)OC[C@H]1O[C@@H](On2c(C(=O)OC(C)C)cc3c(C(F)(F)F)cc(-c4ccc(Cl)cc4Cl)cc32)[C@H](OC(C)=O)[C@@H](OC(C)=O)[C@@H]1OC(C)=O` [Example 44, isopropyl 6-(2,4-dichlorophenyl)-1-(β-d-2,3,4,6-tetra-O-acetylglucopyranosyl)oxy-4-(trifluoromethyl)-1H-indole-2-carboxylate], for which the half-maximal inhibitory concentration (IC50) was greater than 100000 nM.
For the molecule `CC(C)OC(=O)c1cc2c(C(F)(F)F)cc(-c3ccc(Cl)cc3Cl)cc2n1O[C@@H]1O[C@H](CO)[C@@H](O)[C@H](O)[C@H]1O` [Example 45, isopropyl 6-(2,4-dichlorophenyl)-1-(β-D-glucopyranosyl)oxy-4-(trifluoromethyl)-1H-indole-2-carboxylate], the IC50 is greater than 100000 nM.
Regarding `CCCCOC(=O)c1cc2c(C(F)(F)F)cc(-c3ccc(Cl)cc3Cl)cc2n1O[C@@H]1O[C@H](COC(C)=O)[C@@H](OC(C)=O)[C@H](OC(C)=O)[C@H]1OC(C)=O` [Example 46, butyl 6-(2,4-dichlorophenyl)-1-(β-d-2,3,4,6-tetra-O-acetylglucopyranosyl)oxy-4-(trifluoromethyl)-1H-indole-2-carboxylate], the IC50 is greater than 100000 nM.
For `CCCCOC(=O)c1cc2c(C(F)(F)F)cc(-c3ccc(Cl)cc3Cl)cc2n1O[C@@H]1O[C@H](CO)[C@@H](O)[C@H](O)[C@H]1O` [Example 47, butyl 6-(2,4-dichlorophenyl)-1-(β-D-glucopyranosyl)oxy-4-(trifluoromethyl)-1H-indole-2-carboxylate], the IC50 was greater than 100000 nM.
`CC(C)(C)C1CCC(OC(=O)c2cc3c(C(F)(F)F)cc(-c4ccccc4)cc3n2O)CC1` (stereo not drawn) [Example 49, 4-(tert-butyl)cyclohexyl 1-hydroxy-6-phenyl-4-(trifluoromethyl)-1H-indole-2-carboxylate]: the IC50 lay in the range of 10 to 1000 nM.
Regarding `CC(C)(C)C1CCC(OC(=O)c2cc3c(C(F)(F)F)cc(-c4ccc(Cl)cc4Cl)cc3n2O)CC1` (stereo not drawn) [Example 50, 4-(tert-butyl)cyclohexyl 6-(2,4-dichlorophenyl)-1-hydroxy-4-(trifluoromethyl)-1H-indole-2-carboxylate], the IC50 was 10 to 1000 nM.
With `O=C(OCc1ccccc1)c1cc2c(C(F)(F)F)cc(-c3ccc(Cl)cc3Cl)cc2n1O` [Example 55, benzyl 6-(2,4-dichlorophenyl)-1-hydroxy-4-(trifluoromethyl)-1H-indole-2-carboxylate], the half-maximal inhibitory concentration (IC50) lay within 10 to 1000 nM.
Consider `O=C(OCc1ccc(-c2ccccc2)cc1)c1cc2c(C(F)(F)F)cc(-c3ccc(Cl)cc3Cl)cc2n1O` [Example 56, [1,1′-biphenyl]-4-ylmethyl 6-(2,4-dichlorophenyl)-1-hydroxy-4-(trifluoromethyl)-1H-indole-2-carboxylate], for which the IC50 lay within 10 to 1000 nM.
With `CN1CCC(OC(=O)c2cc3c(C(F)(F)F)cc(-c4ccccc4)cc3n2O)CC1` [Example 57, 1-methylpiperidin-4-yl 1-hydroxy-6-phenyl-4-(trifluoromethyl)-1H-indole-2-carboxylate], the 50% inhibitory concentration (IC50) was greater than 100000 nM.
Turning to `CN1CCC(OC(=O)c2cc3c(C(F)(F)F)cc(-c4ccc(Cl)cc4Cl)cc3n2O)CC1` [Example 58, 1-methylpiperidin-4-yl 6-(2,4-dichlorophenyl)-1-hydroxy-4-(trifluoromethyl)-1H-indole-2-carboxylate], the IC50 is greater than 100000 nM.
As for `O=C(OC1CCN(Cc2ccccc2)CC1)c1cc2c(C(F)(F)F)cc(-c3ccc(Cl)cc3Cl)cc2n1O` [Example 59, 1-benzylpiperidin-4-yl 6-(2,4-dichlorophenyl)-1-hydroxy-4-(trifluoromethyl)-1H-indole-2-carboxylate], the half-maximal inhibitory concentration (IC50) was greater than 100000 nM.
Consider `COc1ccc(COC(=O)c2cc3c(C(F)(F)F)cc(-c4ccc(Cl)cc4Cl)cc3n2O)cc1` [Example 60, 4-methoxybenzyl 6-(2,4-dichlorophenyl)-1-hydroxy-4-(trifluoromethyl)-1H-indole-2-carboxylate], for which the IC50 lay in the range of 10 to 1000 nM.
As for `O=C(OCc1ccc([N+](=O)[O-])cc1)c1cc2c(C(F)(F)F)cc(-c3ccc(Cl)cc3Cl)cc2n1O` [Example 61, 4-nitrobenzyl 6-(2,4-dichlorophenyl)-1-hydroxy-4-(trifluoromethyl)-1H-indole-2-carboxylate], the IC50 lay within 10 to 1000 nM.
Turning to `O=C(OCc1ccc(F)cc1)c1cc2c(C(F)(F)F)cc(-c3ccc(Cl)cc3Cl)cc2n1O` [Example 62, 4-fluorobenzyl 6-(2,4-dichlorophenyl)-1-hydroxy-4-(trifluoromethyl)-1H-indole-2-carboxylate], the IC50 fell in the range of 10 to 1000 nM.
The same measure, in the same setting: under `O=C(OCc1ccc(Cl)cc1)c1cc2c(C(F)(F)F)cc(-c3ccc(Cl)cc3Cl)cc2n1O` [Example 63, 4-chlorobenzyl 6-(2,4-dichlorophenyl)-1-hydroxy-4-(trifluoromethyl)-1H-indole-2-carboxylate] stands 10 to 1000 nM; under `O=C(OCc1ccc(C(F)(F)F)cc1)c1cc2c(C(F)(F)F)cc(-c3ccc(Cl)cc3Cl)cc2n1O` [Example 64, 4-(trifluoromethyl)benzyl 6-(2,4-dichlorophenyl)-1-hydroxy-4-(trifluoromethyl)-1H-indole-2-carboxylate], 10 to 1000 nM.
